{"source": "patent US5096904A", "about": "“Pyridazinones having cardiotonic and beta blocking activities” (Glaxo Inc., priority 1990, dated 1992)", "tested_on": "dP/dt (contractility) in barbiturate-anesthetized dogs", "experiment": "Anesthetized dog, inotropic effect (baseline left ventricular dP/dt)", "assay_type": "in vivo, mongrel dogs", "conditions": "with atenolol", "description": "Inotropic effects were evaluated in barbiturate-anesthetized dogs by differentiating left intraventricular pressure. This procedure was carried out essentially as described by M. K. Grizzel et al in the FASEB Journal, Vol. 3, page 1039, abstract 4728 (1989). […] Cardiac output was determined via thermodilution with a Spectramed computer (Starcom, Oxnard, Calif.) and a 5F Swan Ganz catheter which was inserted into the right jugular vein and positioned in the pulmonary artery. […] A lead II electrocardiogram was measured using subcutaneous electrodes. […] Rectal temperature was monitored and maintained at 37°-38° C. with a heating pad (Baxter Health Care model K20, McGaw Park, Ill.). All variables were recorded using a Gould 3800S physiograph.\nIsoproterenol (0.1-0.5 mg/kg) was injected i.v. into the cephalic vein at 10 min intervals except for when the test drug infusion was begun. […] Inhibition of the isoproterenol responses on contractility (dP/dt), heart rate and diastolic blood pressure were determined at each dose of test compound. The inotropic effect of each compound was determined by comparing the level of dP/dt at the end of each 10 min period to that of the level of dP/dt just prior to the infusion of test compound. […]"}
{"smiles": "O=C(COc1ccc(C2=NNC(=O)CC2)cc1Cl)NCCNC[C@H](O)COc1ccccc1", "note": "[Example 19, 6-{4-[N-[2-[3-phenoxy-2-hydroxypropylamino]ethyl]carbamoylmethoxy]-3-chlorophenyl}-4,5-dihydro-3(2H)-pyridazinone]", "values": [{"measurement": "inotropic effects, blockade by atenolol", "value": "not blocked by atenolol"}]}
